The text below walks through data of US9145351B2, “Azole derivatives, methods for producing the same, intermediate thereof, agro-horticultural agents” (KUREHA CORPORATION, priority 2009, dated 2015).

Assay [1] concerns Botrytis cinerea. The experiment in a line: Efficacy test against cucumber gray mold (Experimental Example 1). It is filed as in vivo. The conditions noted are these: 96 h, four days after inoculation, read-out: Protective value; for pest or weed control at 50 µg/mL: 50 mg/L sprayed at 1,000 L/ha; for pest or weed control at 100 µg/mL: 100 mg/L sprayed at 1,000 L/ha. As to the method: Onto a cucumber (variety:SHARP1) plant in its cotyledon phase grown using a square plastic pot (6 cm×6 cm), a wettable formulation such as Formulation Example 1 which was diluted and suspended in water at a certain concentrations (100 mg/L and 50 mg/L) was sprayed at a rate of 1,000 L/ha. The sprayed leaves were air-dried, and loaded with a paper disc (8 mm in diameter) soaked in a spore suspension of Botrytis cinerea, and kept at 20 degrees C. and a high humidity. Four days after inoculation, the cucumber gray mold lesion degree was investigated, and the protective value was calculated by the following equation. Protective value (%)=(1−mean lesion degree in sprayed plot/mean lesion degree in unsprayed plot)×100

Assay [2] concerns Septoria tritici. The experiment in a line: Assay for fungicidal effect on Septoria tritici, plate medium 1.25 mg/L (Experimental Example 9). Format: cell-based. The conditions noted are these: for inhibition at 1.25 µg/mL: Zymoseptoria tritici, read-out: growth inhibition grade. As to the method:
Each inventive compound was dissolved in 2 ml of dimethyl sulfoxide. 0.6 ml of this solution was added to 60 nil of a PDA medium (potato dextrose agar medium) at about 60 degrees C., which was mixed thoroughly in a 100-ml conical flask, and poured into a dish, where it was solidified, thereby obtaining a plate medium containing the inventive compound at 50 mg/L and 5 mg/L. On the other hand, a subject microorganism previously cultured on a plate medium was cut out using a cork borer whose diameter was 4 mm, and inoculated to the test compound-containing plate medium described above. […] The growth degree of the microorganism on the test compound-containing plate medium thus observed was compared with the growth degree of the microorganism in the untreated group, and % mycelial growth inhibition was calculated by the following equation. R=100(dc−dt)/dc wherein R=% mycelial extension inhibition, dc=flora diameter in untreated plate, dt=flora diameter in treated plate. The results obtained as described above were evaluated as one of the 5 grades according to the following criteria. […] In this Experimental Example, the fungicidal effects of the inventive compounds on Septoria tritici were examined by the methods described in the Experimental Example 5. In this Experimental Example, the inventive compounds were diluted at 1.25 mg/L.

Assay [3] deals with Aureobasidium sp. The experiment in a line: Plate medium assay, industrial material deteriorating microorganism, Aureobasidium (Experimental Example 5). Format: cell-based. The conditions noted are these: treatment at 50 mg/l, PDA plate medium, read-out: growth inhibition grade. As to the method:
(§1) In this Experimental Example, the fungicidal effects of the inventive compounds on various phytopathogenic fungi for plants and hazardous microorganism for industrial materials were examined by the methods described below. Each inventive compound was dissolved in 2 ml of dimethyl sulfoxide. 0.6 ml of this solution was added to 60 nil of a PDA medium (potato dextrose agar medium) at about 60 degrees C., which was mixed thoroughly in a 100-ml conical flask, and poured into a dish, where it was solidified, thereby obtaining a plate medium containing the inventive compound at 50 mg/L and 5 mg/L. On the other hand, a subject microorganism previously cultured on a plate medium was cut out using a cork borer whose diameter was 4 mm, and inoculated to the test compound-containing plate medium described above. […] The growth degree of the microorganism on the test compound-containing plate medium thus observed was compared with the growth degree of the microorganism in the untreated group, and % mycelial growth inhibition was calculated by the following equation. R=100(dc-dt)/dc wherein R=% mycelial extension inhibition, dc=flora diameter in untreated plate, dt=flora diameter in treated plate. The results obtained as described above were evaluated as one of the 5 grades according to the following criteria.

In assay [4] the test system is Fusarium graminearum. The assay is described as follows: whole plant or invertebrate. It is filed as in vivo. The note with it: in Triticum aestivum, 168 h, read-out: Protective value.
The subject of assay [5] is Cladosporium sp. The experiment in a line: Plate medium assay, industrial material deteriorating microorganism, Cladosporium (Experimental Example 5). It is filed as cell-based. The note with it: treatment at 50 mg/l, PDA plate medium, read-out: growth inhibition grade. As to the method:
as §1

Assay [6] concerns Penicillium sp. The experiment in a line: Plate medium assay, industrial material deteriorating microorganism, Penicillium (Experimental Example 5). It is filed as cell-based. The note with it: treatment at 50 mg/l, PDA plate medium, read-out: growth inhibition grade. The protocol:
as §1

Assay [7] concerns Puccinia recondita. The experiment in a line: Efficacy test against wheat brown rust, 100 mg/L and 10 mg/L (Experimental Example 2). It is filed as in vivo. The note with it: nine to 14 days after inoculation; for efficacy compared with compound (1): 10 mg/L sprayed at 1,000 L/ha; for pest or weed control at 100 µg/mL: Puccinia recondita, 336 h, 100 mg/L sprayed at 1,000 L/ha, read-out: Protective value. As to the method:
Onto a wheat plant (variety: NORIN No. 61) grown to the two-leaf phase using a square plastic pot (6 cm×6 cm), a wettable formulation such as Formulation Example 1 which was diluted and suspended in water at a certain concentration (100 mg/L and 10 mg/L) was sprayed at a rate of 1,000 L/ha. The sprayed leaves were air-dried, and inoculated with spore suspension of Puccinia recondita (adjusted at 200 spores/vision, […] was added at 60 ppm) by spraying, and kept at 25 degrees C. and a high humidity for 48 hours. Thereafter, the plant was kept in a greenhouse. Nine to 14 days after inoculation, the wheat brown rust lesion degree was investigated, and the protective value was calculated by the following equation. Protective value (%)=(1-lesion degree in sprayed plot/lesion degree in unsprayed plot)×100

In assay [8] the test system is Septoria tritici. The assay is described as follows: Microplate test of biocidal effect on wheat Septoria blotch (Experimental Example 4). Format: cell-based. The conditions noted are these: Zymoseptoria tritici, 240 h; % mycelium growth inhibition, absorbance 550 nm, 20 degrees C. for about 10 days; read-out: activity level (EC80). A digest of the protocol: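 Septoria tritici spores (1×10^6 cells/ml suspension, diluted 100-fold in PD medium) incubated with compound added from DMSO stock at 100× test concentration. Percent mycelial growth inhibition computed from absorbance of treated versus untreated wells.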

Assay [9] concerns Trichoderma sp. The experiment in a line: Plate medium assay, industrial material deteriorating microorganism, Trichoderma (Experimental Example 5). The conditions noted are these: treatment at 50 mg/l, PDA plate medium, read-out: growth inhibition grade. Format: cell-based. The protocol:
as §1

Assay [10] deals with Coriolus versicolor. The experiment in a line: Plate medium assay, wood denaturing microorganism Kawaratake (Experimental Example 5). It is filed as cell-based. The conditions noted are these: Trametes versicolor; treatment at 50 mg/l, PDA plate medium; read-out: growth inhibition grade. The protocol:
as §1

In assay [11] the test system is Aspergillus sp. The experiment in a line: Plate medium assay, industrial material deteriorating microorganism, Aspergillus (Experimental Example 5). The conditions noted are these: treatment at 50 mg/l, PDA plate medium, read-out: growth inhibition grade. Format: cell-based. The protocol: as §1
Assay [12] has as its system Mucor sp. The assay is described as follows: Plate medium assay, industrial material deteriorating microorganism, Mucor (Experimental Example 5). It is filed as cell-based. The conditions noted are these: treatment at 50 mg/l, PDA plate medium, read-out: growth inhibition grade. The protocol: as §1
Assay [13] has as its system Puccinia recondita. The experiment in a line: Efficacy test against wheat brown rust, 1 mg/L (Experimental Example 10). Format: in vivo. The note with it: 1 g/ha (1 mg/L sprayed at 1,000 L/ha).

As for `C[C@]1(CCl)CC[C@@H](Cc2ccc(F)cc2)[C@]1(O)Cn1cncn1` (racemic) [Compound I-77, (1RS,2SR,5SR)-2-chloromethyl-5-(4-fluorobenzyl)-2-methyl-1-(1H-1,2,4-triazol-1-ylmethyl)cyclopentanol], the pest or weed control at 50 µg/mL in assay [1] is ≥ 80%. Further, the figures for the pest or weed control at 100 µg/mL in [1], in assay [4] and in assay [7] were ≥ 80%, ≥ 80% and ≥ 90%, respectively. The inhibition at 1.25 µg/mL in [2] is > 80%. In addition, the inhibition at 50 µg/mL in assay [3], in assay [5], in assay [6], in assay [9], in assay [10] and in assay [11] was 60 to 80% each time. For the same compound, in [12], the inhibition at 50 µg/mL is 60 to 80%. Also, the pest or weed control at 500 µg/mL in assay [4] was ≥ 90%. In addition, the “efficacy compared with compound (1)” value in assay [7] was “higher efficacy than that of compound (1)”. Moreover, the concentration for an effect of 80% (EC80) in [8] was ≤ 0.2 µg/mL. Besides, in assay [13], the lesion degree is 0.5 (Less than 1%).
As for `C[C@]1(CCl)CC[C@@H](Cc2ccc(Cl)cc2)[C@]1(O)Cn1cncn1` (racemic) [Compound I-1, (1RS,2SR,5SR)-5-(4-chlorobenzyl)-2-chloromethyl-2-methyl-1-(1H-1,2,4-triazol-1-ylmethyl)cyclopentanol], the pest or weed control at 50 µg/mL in [1] was ≥ 80%. Besides, the results for the pest or weed control at 100 µg/mL in assay [1], in assay [4] and in assay [7] were ≥ 80%, ≥ 80% and ≥ 90%, respectively. Also, the inhibition at 1.25 µg/mL in [2] was > 80%. Moreover, the inhibition at 50 µg/mL in assay [3], in assay [5], in assay [6], in [9], in assay [10] and in [11] was 60 to 80% throughout. Besides, the inhibition at 50 µg/mL in assay [12] was in the range of 60 to 80%. Besides, the pest or weed control at 500 µg/mL in assay [4] was ≥ 90%. The “efficacy compared with compound (1)” value in assay [7] is “higher efficacy than that of compound (1)”. The 80% effect concentration (EC80) in assay [8] is ≤ 0.2 µg/mL. Further, in assay [13], the lesion degree is recorded as 0.5 (Less than 1%).
`C[C@]1(CCl)CC[C@@H](Cc2ccccc2)[C@]1(O)Cn1cncn1` (racemic) [Compound I-73, (1RS,2SR,5SR)-2-chloromethyl-5-benzyl-2-methyl-1-(1H-1,2,4-triazol-1-ylmethyl)cyclopentanol]: in [1], the pest or weed control at 50 µg/mL was ≥ 80%. The pest or weed control at 100 µg/mL is ≥ 80% in assay [1], ≥ 80% in [4] and ≥ 90% in assay [7]. The inhibition at 1.25 µg/mL in assay [2] was > 80%. For the same compound, the inhibition at 50 µg/mL in assay [3], in assay [5], in assay [6], in [9], in assay [10] and in [11] was 60 to 80% each time. Moreover, in assay [12], the inhibition at 50 µg/mL fell in the range of 60 to 80%. Further, the pest or weed control at 500 µg/mL in [4] is ≥ 90%. Further, in assay [7], the “efficacy compared with compound (1)” value is reported as “higher efficacy than that of compound (1)”. The EC80 in [8] was ≤ 0.2 µg/mL. The lesion degree in assay [13] is 0.5 (Less than 1%).
Consider `C[C@]1(CCl)CC[C@@H](Cc2ccc(F)cc2F)[C@]1(O)Cn1cncn1` (relative stereo) [Compound I-88], for which the growth inhibition grade in assay [2] is listed as 5 (% Mycerial growth inhibition of 80% or higher). In assay [7], the “efficacy compared with compound (1)” value is “higher efficacy than that of compound (1)”. In addition, in assay [13], the lesion degree is 0.5 (Less than 1%).

What is called inhibition is how much of the control response was suppressed. A word on the EC80: it is the concentration needed for an effect of 80%.
